# Test results published in ChEMBL document CHEMBL1135045, “alpha(1)-Adrenoceptor antagonists. Rational design, synthesis and biological evaluation of new trazodone-like compounds” (Bioorg Med Chem Lett, 2002).
# Experiments:
# [1] = target: T1, Adrenergic receptor alpha-2 (Rattus norvegicus, UniProt P22086+P19328+P22909); assay: Binding affinity by its ability to displace [3H]rauwolscine radioligand from Alpha-2 adrenergic receptor on rat cerebral cortex; assay type: tissue-based
# T1 sequence (P22086 whole entry): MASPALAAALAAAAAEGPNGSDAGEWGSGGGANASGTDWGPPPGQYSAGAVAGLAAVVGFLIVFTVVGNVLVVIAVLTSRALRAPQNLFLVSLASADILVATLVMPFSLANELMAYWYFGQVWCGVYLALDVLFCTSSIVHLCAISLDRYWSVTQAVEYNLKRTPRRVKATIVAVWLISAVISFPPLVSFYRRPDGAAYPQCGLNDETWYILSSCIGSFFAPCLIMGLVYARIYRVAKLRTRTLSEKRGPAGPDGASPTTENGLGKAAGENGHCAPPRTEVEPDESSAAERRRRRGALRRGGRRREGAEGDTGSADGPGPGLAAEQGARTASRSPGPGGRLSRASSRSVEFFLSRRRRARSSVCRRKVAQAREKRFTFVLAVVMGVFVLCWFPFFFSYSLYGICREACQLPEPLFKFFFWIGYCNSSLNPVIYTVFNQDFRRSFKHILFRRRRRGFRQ
# T1 sequence (P19328 whole entry): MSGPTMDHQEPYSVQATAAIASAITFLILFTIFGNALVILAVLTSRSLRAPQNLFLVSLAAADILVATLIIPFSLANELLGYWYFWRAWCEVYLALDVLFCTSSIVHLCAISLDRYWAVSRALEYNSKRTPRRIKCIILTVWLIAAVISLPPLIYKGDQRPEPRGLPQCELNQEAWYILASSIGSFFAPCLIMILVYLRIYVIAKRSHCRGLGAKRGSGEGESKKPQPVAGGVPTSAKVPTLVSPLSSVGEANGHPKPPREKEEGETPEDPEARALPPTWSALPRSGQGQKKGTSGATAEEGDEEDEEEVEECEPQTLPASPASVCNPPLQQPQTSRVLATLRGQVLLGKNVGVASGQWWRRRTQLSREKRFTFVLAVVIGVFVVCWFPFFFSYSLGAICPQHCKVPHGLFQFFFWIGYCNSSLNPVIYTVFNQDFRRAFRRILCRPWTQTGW
# T1 sequence (P22909 whole entry): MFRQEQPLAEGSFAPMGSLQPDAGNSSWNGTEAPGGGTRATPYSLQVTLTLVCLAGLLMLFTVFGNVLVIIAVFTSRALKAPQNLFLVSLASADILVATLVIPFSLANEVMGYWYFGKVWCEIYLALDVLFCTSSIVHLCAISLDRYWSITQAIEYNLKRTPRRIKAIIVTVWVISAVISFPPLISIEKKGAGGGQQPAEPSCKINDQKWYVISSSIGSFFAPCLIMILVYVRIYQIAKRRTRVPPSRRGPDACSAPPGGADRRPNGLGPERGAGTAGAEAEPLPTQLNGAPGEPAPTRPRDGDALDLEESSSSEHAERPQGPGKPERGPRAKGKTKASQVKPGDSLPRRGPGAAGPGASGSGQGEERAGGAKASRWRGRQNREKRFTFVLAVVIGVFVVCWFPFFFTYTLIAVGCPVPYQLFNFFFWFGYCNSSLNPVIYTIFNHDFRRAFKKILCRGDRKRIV
# [2] = target: T2, Adrenergic receptor alpha-1 (Rattus norvegicus, UniProt P15823+P23944+P43140); assay: Binding affinity by its ability to displace [3H]prazosin radioligand from Alpha-1 adrenergic receptor on rat cerebral cortex; assay type: tissue-based
# T2 sequence (P15823 whole entry): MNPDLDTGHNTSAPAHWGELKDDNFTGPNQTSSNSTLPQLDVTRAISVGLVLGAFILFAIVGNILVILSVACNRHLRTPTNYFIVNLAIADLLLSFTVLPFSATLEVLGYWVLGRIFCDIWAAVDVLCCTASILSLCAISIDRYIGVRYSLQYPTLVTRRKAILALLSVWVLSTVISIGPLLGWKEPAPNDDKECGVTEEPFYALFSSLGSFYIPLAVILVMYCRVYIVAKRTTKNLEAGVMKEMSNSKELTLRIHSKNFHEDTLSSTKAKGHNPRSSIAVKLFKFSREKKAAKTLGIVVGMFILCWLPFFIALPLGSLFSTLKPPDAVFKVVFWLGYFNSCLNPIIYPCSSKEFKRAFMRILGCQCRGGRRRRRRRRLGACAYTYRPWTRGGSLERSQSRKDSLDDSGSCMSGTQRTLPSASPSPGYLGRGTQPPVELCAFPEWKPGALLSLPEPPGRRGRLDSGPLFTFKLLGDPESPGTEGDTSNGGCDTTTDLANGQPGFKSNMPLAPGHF
# T2 sequence (P23944 whole entry): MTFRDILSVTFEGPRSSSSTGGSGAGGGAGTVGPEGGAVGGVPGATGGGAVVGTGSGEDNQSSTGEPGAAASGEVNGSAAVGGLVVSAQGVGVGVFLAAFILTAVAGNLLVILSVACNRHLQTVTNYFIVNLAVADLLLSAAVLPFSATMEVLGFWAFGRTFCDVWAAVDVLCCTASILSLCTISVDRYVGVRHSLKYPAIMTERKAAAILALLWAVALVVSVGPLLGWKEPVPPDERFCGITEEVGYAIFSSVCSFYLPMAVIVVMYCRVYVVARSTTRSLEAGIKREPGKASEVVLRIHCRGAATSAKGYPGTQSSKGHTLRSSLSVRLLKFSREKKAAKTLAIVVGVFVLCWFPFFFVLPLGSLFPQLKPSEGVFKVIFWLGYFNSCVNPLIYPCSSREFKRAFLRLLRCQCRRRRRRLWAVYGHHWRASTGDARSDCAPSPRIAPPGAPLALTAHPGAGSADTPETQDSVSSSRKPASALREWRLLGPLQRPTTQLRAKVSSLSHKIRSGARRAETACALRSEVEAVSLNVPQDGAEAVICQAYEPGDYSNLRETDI
# T2 sequence (P43140 whole entry): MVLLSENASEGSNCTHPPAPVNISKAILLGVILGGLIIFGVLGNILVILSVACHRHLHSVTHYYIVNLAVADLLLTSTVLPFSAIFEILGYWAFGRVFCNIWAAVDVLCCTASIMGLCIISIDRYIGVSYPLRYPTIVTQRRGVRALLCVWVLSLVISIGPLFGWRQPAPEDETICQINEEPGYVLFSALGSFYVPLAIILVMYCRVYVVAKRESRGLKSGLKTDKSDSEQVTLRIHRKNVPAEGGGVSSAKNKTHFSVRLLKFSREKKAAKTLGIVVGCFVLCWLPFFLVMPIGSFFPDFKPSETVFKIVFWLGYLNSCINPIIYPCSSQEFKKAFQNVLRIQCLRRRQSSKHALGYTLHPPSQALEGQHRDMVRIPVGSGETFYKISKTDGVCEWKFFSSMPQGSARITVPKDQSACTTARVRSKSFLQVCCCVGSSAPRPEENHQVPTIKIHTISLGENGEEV
Ki [1],Ki [2],SMILES
0.016 µM,0.0011 µM,COc1ccccc1N1CCN(CCCCn2nc(-n3cnc4ccccc43)ccc2=O)CC1
0.4366 µM,0.0483 µM,O=c1ccc(-n2ccnc2)nn1CCCN1CCN(c2ccccc2Cl)CC1
0.0447 µM,0.0152 µM,O=c1ccc(-n2cnc3ccccc32)nn1CCCN1CCN(c2ccccc2Cl)CC1
0.1583 µM,0.0065 µM,COc1ccccc1N1CCN(CCCn2nc(-n3cnc4ccccc43)ccc2=O)CC1
0.6734 µM,0.1154 µM,COc1ccccc1N1CCN(CCCn2nc(-n3ccnc3)ccc2=O)CC1
